26 compounds from paper PMC3199943, “Screening the MayBridge Rule of 3 Fragment Library for Compounds That Interact with the Trypanosoma brucei myo-Inositol-3-Phosphate Synthase and/or Show Trypanocidal Activity” (Molecular Biology International, 2011) can be followed below.

The subject of one assay is A549 cells. As to the kind of experiment: Cytotoxicity against A549 cells, Alamar Blue. It is filed as cell-based. To be noted: Supplementary Table 1, compound 0.5 mM, percentage of controls (n=1); for viability at 500 µM: Homo sapiens, A549, 65 h. The procedure, abridged: (§1)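 HeLa and A549 cells grown in DMEM with 10% FCS and 2 mM L-Glutamine were seeded at 2 × 10^4 cells/well. They were exposed to compounds for ~65 hours, then Alamar Blue was added for a further 5 hours to measure viability.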
(Resazurin is reduced to fluorescent resorufin, in cell work by metabolically active cells.)

The next assay relates to HeLa cells. As to the kind of experiment: cells. To be noted: for viability at 500 µM: Homo sapiens, HeLa, 65 h; for HeLa Cells Alamar Blue: Supplementary Table 1. The gist of the method: as §1
In a further assay the target is T1, TbINO1 (Trypanosoma brucei brucei, UniProt Q5QQ46).
T1 sequence (Q5QQ46 1-528): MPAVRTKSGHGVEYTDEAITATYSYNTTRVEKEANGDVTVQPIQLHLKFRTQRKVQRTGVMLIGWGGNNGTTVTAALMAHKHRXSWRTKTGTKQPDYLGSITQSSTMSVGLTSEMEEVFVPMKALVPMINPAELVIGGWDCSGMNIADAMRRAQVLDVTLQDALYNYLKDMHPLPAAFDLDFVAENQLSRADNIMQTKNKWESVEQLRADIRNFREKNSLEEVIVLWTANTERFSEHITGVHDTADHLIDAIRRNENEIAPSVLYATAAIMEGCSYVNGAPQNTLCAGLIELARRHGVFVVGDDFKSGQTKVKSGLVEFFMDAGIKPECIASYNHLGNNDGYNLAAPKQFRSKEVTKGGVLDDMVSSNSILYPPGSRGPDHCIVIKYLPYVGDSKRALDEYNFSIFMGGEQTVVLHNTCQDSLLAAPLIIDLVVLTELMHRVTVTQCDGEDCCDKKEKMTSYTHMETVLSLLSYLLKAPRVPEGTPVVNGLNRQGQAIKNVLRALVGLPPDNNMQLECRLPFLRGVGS
Put plainly: biochemical. It is filed as binding.

The mark [1] stands for this setting: read-out: HeLa Cells Alamar Blue.
[2] abbreviates: read-out: Tb Ino1 Tm Shift [˚C].
Setting [3] is: compound 0.5 mM, percentage of controls, mean ± SD (n=3) or SE (n=2).
The mark [4] stands for this setting: Supplementary Table 1, compound 1mM, mean ± SD from Boltzman curve fitting.
The mark [5] stands for this setting: read-out: HeLa Cells Alamar Blue, Supplementary Table 1, compound 0.5 mM, percentage of controls, mean ± SD (n=3) or SE (n=2).
Setting [6] is: Supplementary Table 1, compound 1mM, mean ± SD from Boltzman curve fitting, read-out: Tb Ino1 Tm Shift [˚C].

Where a name gives a salt, the structure may show the parent alone. Read-outs that look alike come from different tables or passages of the source.

On to `O=C(O)c1cccc(-c2ccncc2)c1` [compound 614, 3‐pyrid‐4‐ylbenzoic acid], for which the viability at 500 µM in the assay on A549 cells was found to be 66.3%; with HeLa cells (setting [1]), 81.2 ± 15.9%. The ΔTm at 1000 µM on TbINO1 (setting [2]) amounted to 0.46 ± 0.12 °C.
On the same counts, the results for `O=C(O)c1cncc(-c2ccccc2)c1` [compound 615, 5‐phenylnicotinic acid] are 75.6%, 80.4 ± 11.7% and 1.28 ± 0.09 °C.
With `CCOC(=O)c1c(N)sc(C)c1C` [compound 617, ethyl 2‐amino‐4,5‐dimethylthiophene‐3‐carboxylate], the “A549 Cells Alamar Blue” value in the assay with A549 cells is 75.2 percentage of controls. In addition, in the assay on HeLa cells (setting [3]), the “HeLa Cells Alamar Blue” value is 69.1 ± 9.3 percentage of controls. Also, on TbINO1 (setting [4]), the “Tb Ino1 Tm Shift [˚C]” value came to 1.47 ± 0.07 °C.
As for `OCc1ccc(N2CCOCC2)s1` [compound 618, (5‐morpholinothien‐2‐yl)methanol], the results for the viability at 500 µM in the assay with A549 cells and in the assay with HeLa cells (setting [1]) were 76.3% and 70.4 ± 13.2%, respectively. Also, on TbINO1 (setting [2]), the ΔTm at 1000 µM was 1.12 ± 0.11 °C.
On the same counts, the results for `CC(C)(C)OC(=O)Nc1ccsc1` [compound 619, tert‐butyl N‐(3‐thienyl)carbamate] are 74.9%, 80 ± 17.5% and 0.21 ± 0.07 °C.
On to `CC(C)(C)OC(=O)Nc1cccs1` [compound 620, tert-butyl N-(2-thienyl)carbamate], for which the results for the viability at 500 µM with A549 cells, in the assay with HeLa cells (setting [1]) and in the assay with HeLa cells (read-out: HeLa Cells Alamar Blue (% survival)) were 109%, 71.3 ± 13.6% and 71.3 ± 13.6%, respectively. Further, the ΔTm at 1000 µM on TbINO1 (read-out: TbIno1 Tm shift [°C]) stood at 2.08 ± 0.1 °C.
For `Cc1nc(-c2ccc(C#N)cc2)cs1` [compound 625, 4‐(2‐methyl‐1,3‐thiazol‐4‐yl)benzonitrile], the viability at 500 µM is 79.4% with A549 cells and 74.1 ± 7.1% in the assay on HeLa cells (setting [1]). The ΔTm at 1000 µM at TbINO1 (setting [2]) turned out to be 1.06 ± 0.07 °C.
Regarding `NCc1nc2ccccc2s1` [compound 626, 1,3-benzothiazol-2-ylmethylamine hydrochloride], the viability at 500 µM in the assay on A549 cells is 85.7%; with HeLa cells (read-out: HeLa Cells Alamar Blue (% survival), compound 0.5 mM, percentage of controls), 95.1 ± 15.5%; in the assay with HeLa cells (setting [5]) it was 95.1 ± 15.5%. Further, the ΔTm at 1000 µM on TbINO1 (read-out: TbIno1 Tm shift [°C]) was found to be 2.03 ± 0.08 °C.
`COC(=O)c1ccccc1-n1cccc1` [compound 628, methyl 2‐(1H‐pyrrol‐1‐yl)benzoate]: the viability at 500 µM with A549 cells was 85.1%; in the assay on HeLa cells (setting [1]), 70.4 ± 14%. Besides, the ΔTm at 1000 µM on TbINO1 (setting [2]) amounted to 0.84 ± 0.08 °C.
As to `CNCc1cc(-c2ccccc2)nn1C` [compound 631, N‐methyl‐N‐[(1‐methyl‐3‐phenyl‐1H‐pyrazol‐5‐yl)methyl]amine], the “A549 Cells Alamar Blue” value with A549 cells is given as 100.2 percentage of controls. In addition, in the assay with HeLa cells (setting [3]), the “HeLa Cells Alamar Blue” value is listed as 66.2 ± 16.3 percentage of controls. The “Tb Ino1 Tm Shift [˚C]” value on TbINO1 (setting [4]) was determined as 0.5 ± 0.08 °C.
On the same counts, the results for `COC(=O)c1cccc(CN)c1.Cl` [compound 632, 3‐Aminomethylbenzoic acid methyl ester hydrochloride] are 107.3 percentage of controls, 44.8 ± 10.2 percentage of controls and 0.22 ± 0.07 °C.
On the same counts, the results for `N#CCOc1ccc(C(F)(F)F)cn1` [compound 634, 2‐{[5‐(trifluoromethyl)‐2‐pyridyl]oxy}acetonitrile] are 87.2 percentage of controls, 73.3 ± 1.6 percentage of controls and 0.24 ± 0.09 °C.
Consider `Cc1cc(C(=O)O)c(-c2ccccc2)o1` [compound 635, 5‐methyl‐2‐phenyl‐3‐furoic acid], for which the figures for the viability at 500 µM in the assay with A549 cells and with HeLa cells (setting [1]) were 90.1% and 17.7 ± 16.2%, respectively. The ΔTm at 1000 µM on TbINO1 (setting [2]) came out at 0.38 ± 0.04 °C.
With `CNCc1c(-c2ccccc2)noc1C` [compound 637, N‐methyl‐N‐[(5‐methyl‐3‐phenylisoxazol‐4‐yl)methyl]amine], in the assay on A549 cells, the “A549 Cells Alamar Blue” value is listed as 112.6 percentage of controls. In the assay with HeLa cells (setting [3]), the “HeLa Cells Alamar Blue” value was 79.8 ± 7.5 percentage of controls. The “Tb Ino1 Tm Shift [˚C]” value on TbINO1 (setting [4]) was 0.02 ± 0.07 °C.
Consider `N#Cc1ccc(OC2CCOCC2)cc1` [compound 645, 4‐(tetrahydropyran‐4‐yloxy)benzonitrile], for which the viability at 500 µM is 102% in the assay with A549 cells and 77.4 ± 15.8% in the assay on HeLa cells (setting [1]). For the same compound, the ΔTm at 1000 µM on TbINO1 (setting [2]) came to 0.18 ± 0.05 °C.
Regarding `CNCc1ccccc1-c1cccs1` [compound 646, N‐methyl‐N‐(2‐thien‐2‐ylbenzyl)amine], the values for the viability at 500 µM in the assay with A549 cells and in the assay with HeLa cells (setting [5]) were 66.9% and 36.5 ± 9.5%, respectively. At TbINO1 (setting [6]), the ΔTm at 1000 µM was 0.1 ± 0.05 °C.
As to `O=C(O)c1ccc(-c2ccsc2)cc1` [compound 648, 4‐(3‐thienyl)benzoic acid], the viability at 500 µM worked out at 149% with A549 cells and 105 ± 8.2% in the assay on HeLa cells (setting [1]). The ΔTm at 1000 µM on TbINO1 (setting [2]) is 0.25 ± 0.08 °C.
As to `Cc1cc(C(=O)O)c2cc(F)ccc2n1` [compound 660, 6‐fluoro‐2‐methyl‐4‐quinolinecarboxylic acid], the “A549 Cells Alamar Blue” value in the assay with A549 cells is given as 146.9 percentage of controls. Also, the “HeLa Cells Alamar Blue” value in the assay on HeLa cells (setting [3]) is on record as 103 ± 3.9 percentage of controls. Moreover, the “Tb Ino1 Tm Shift [˚C]” value on TbINO1 (setting [4]) worked out at 0.5 ± 0.06 °C.
`O=C(O)c1ccc(-c2ccccn2)s1` [compound 661, 5‐(2‐pyridyl)thiophene‐2‐carboxylic acid]: the values for the viability at 500 µM with A549 cells and in the assay on HeLa cells (setting [1]) were 94.1% and 95.3 ± 3.5%, respectively. Further, the ΔTm at 1000 µM at TbINO1 (setting [2]) came out at 0.91 ± 0.07 °C.
For `O=C(O)c1ccc(-c2nccs2)cc1` [compound 662, 4‐(1,3‐thiazol‐2‐yl)benzoic acid], in that order: 100%, 102 ± 7.2% and 0.36 ± 0.06 °C.
On the same counts, the results for `O=C(O)c1cccc(N2CCCCC2)c1` [compound 663, 3‐piperidinobenzoic acid] are 104%, 97.9 ± 1.5% and 1.23 ± 0.07 °C.
Take `Cc1nc(-c2ccccc2)c(CO)s1` [compound 666, (2‐methyl‐4‐phenyl‐1,3‐thiazol‐5‐yl)methanol]: in the assay with A549 cells, the “A549 Cells Alamar Blue” value is reported as 113.4 percentage of controls. Also, in the assay on HeLa cells (setting [3]), the “HeLa Cells Alamar Blue” value is on record as 95.3 ± 5 percentage of controls. The “Tb Ino1 Tm Shift [˚C]” value on TbINO1 (setting [4]) amounted to 0.08 ± 0.05 °C.
For `Cc1nc(-c2ccc(CO)cc2)cs1` [compound 667, [4‐(2‐methyl‐1,3‐thiazol‐4‐yl)phenyl]methanol], in that order: 103.8 percentage of controls, 76.7 ± 4.3 percentage of controls and 0.4 ± 0.07 °C.
For the compound `N#Cc1ccnc(N2CCSCC2)c1` [compound 668, 2‐thiomorpholinoisonicotinonitrile], the viability at 500 µM in the assay with A549 cells was 98.5%; with HeLa cells (setting [1]) it was 80.3 ± 19.6%. Besides, the ΔTm at 1000 µM at TbINO1 (setting [2]) was 1.06 ± 0.07 °C.
Consider `CN1CCN(Cc2ccccc2N)CC1` [compound 670, 2‐[(4‐methylpiperazin‐1‐yl)methyl]aniline], for which the viability at 500 µM in the assay with A549 cells turned out to be 121%; in the assay on HeLa cells (setting [1]), 94.6 ± 8.5%. For the same compound, on TbINO1 (setting [6]), the ΔTm at 1000 µM came out at 0.05 ± 0.07 °C.
As to “(Piperidino‐3‐pyridinyl)methanol [compound 569]”, the “A549 Cells Alamar Blue” value with A549 cells was 106.4 percentage of controls. Further, the “HeLa Cells Alamar Blue” value in the assay with HeLa cells (setting [3]) is given as 89.2 ± 4.8 percentage of controls. Further, the “Tb Ino1 Tm Shift [˚C]” value at TbINO1 (setting [4]) came out at 0.35 ± 0.07 °C.
